Assay results published in BindingDB's records for doi:10.1021/acs.jmedchem.2c02005 (The Hong Kong Polytechnic University, 2023).
Each block holds one compound with its values, some of them ahead of it.

How the values were obtained:
[1] = Negative allosteric modulator activity at P-gp in human LCC6MDR cells overexpressing P-gp assessed as reversal of P-gp mediated PTX resistance by measuring paclitaxel IC50 incubated for 5 days by MTS assay
[2] = Negative allosteric modulator activity at human wildtype P-gp expressed in HEK293FT cells assessed as reversal of P-gp mediated PTX resistance by measuring paclitaxel IC50 incubated for 5 days by MTS assay (Rvb = 540.5 +/- 20.3 nM)
[3] = Negative allosteric modulator activity at human P-gp I1115K mutant expressed in HEK293FT cells assessed as reversal of P-gp mediated PTX resistance by measuring paclitaxel IC50 incubated for 5 days by MTS assay (Rvb = 6.2 +/- 2 nM)
[4] = Negative allosteric modulator activity at human P-gp G1114A mutant expressed in HEK293FT cells assessed as reversal of P-gp mediated PTX resistance by measuring paclitaxel IC50 incubated for 5 days by MTS assay (Rvb = 5.6 +/- 1.1 nM)
[5] = Negative allosteric modulator activity at human P-gp I1115A mutant expressed in HEK293FT cells assessed as reversal of P-gp mediated PTX resistance by measuring paclitaxel IC50 incubated for 5 days by MTS assay (Rvb = 7.5 +/- 2.4 nM)
[6] = Negative allosteric modulator activity at human P-gp H1195A mutant expressed in HEK293FT cells assessed as reversal of P-gp mediated PTX resistance by measuring paclitaxel IC50 incubated for 5 days by MTS assay (Rvb = 3.4 +/- 1.5 nM)
[7] = Negative allosteric modulator activity at human P-gp T1226A mutant expressed in HEK293FT cells assessed as reversal of P-gp mediated PTX resistance by measuring paclitaxel IC50 incubated for 5 days by MTS assay (Rvb = 6.3 +/- 2.1 nM)
[8] = Negative allosteric modulator activity at human P-gp G1114V mutant expressed in HEK293FT cells assessed as reversal of P-gp mediated PTX resistance by measuring paclitaxel IC50 incubated for 5 days by MTS assay (Rvb = 3.4 +/- 0.5 nM)
[9] = Negative allosteric modulator activity at human P-gp G1114L mutant expressed in HEK293FT cells assessed as reversal of P-gp mediated PTX resistance by measuring paclitaxel IC50 incubated for 5 days by MTS assay (Rvb = 4.5 +/- 1.1 nM)
[10] = Negative allosteric modulator activity at human P-gp I1115W mutant expressed in HEK293FT cells assessed as reversal of P-gp mediated PTX resistance by measuring paclitaxel IC50 incubated for 5 days by MTS assay (Rvb = 7.8 +/- 0.9 nM)
[11] = Negative allosteric modulator activity at human P-gp I1115Y mutant expressed in HEK293FT cells assessed as reversal of P-gp mediated PTX resistance by measuring paclitaxel IC50 incubated for 5 days by MTS assay (Rvb = 6.9 +/- 1.2 nM)
[12] = Negative allosteric modulator activity at human P-gp I1115E mutant expressed in HEK293FT cells assessed as reversal of P-gp mediated PTX resistance by measuring paclitaxel IC50 incubated for 5 days by MTS assay (Rvb = 7.4 +/- 0.8 nM)
[13] = Negative allosteric modulator activity at human P-gp I1115M mutant expressed in HEK293FT cells assessed as reversal of P-gp mediated PTX resistance by measuring paclitaxel IC50 incubated for 5 days by MTS assay (Rvb = 9.8 +/- 0.9 nM)
[14] = Negative allosteric modulator activity at human P-gp L1113A mutant expressed in HEK293FT cells assessed as reversal of P-gp mediated PTX resistance by measuring paclitaxel IC50 incubated for 5 days by MTS assay (Rvb = 590 +/- 14.2 nM)
[15] = Negative allosteric modulator activity at human P-gp G1114I mutant expressed in HEK293FT cells assessed as reversal of P-gp mediated PTX resistance by measuring paclitaxel IC50 incubated for 5 days by MTS assay (Rvb = 10.2 +/- 2.4 nM)
[16] = Negative allosteric modulator activity at human P-gp I1115N mutant expressed in HEK293FT cells assessed as reversal of P-gp mediated PTX resistance by measuring paclitaxel IC50 incubated for 5 days by MTS assay (Rvb = 10.2 +/- 1.6 nM)
[17] = Negative allosteric modulator activity at human P-gp I1115L mutant expressed in HEK293FT cells assessed as reversal of P-gp mediated PTX resistance by measuring paclitaxel IC50 incubated for 5 days by MTS assay (Rvb = 472 +/- 15.4 nM)
[18] = Negative allosteric modulator activity at human P-gp Q1193A mutant expressed in HEK293FT cells assessed as reversal of P-gp mediated PTX resistance by measuring paclitaxel IC50 incubated for 5 days by MTS assay (Rvb = 483.4 +/- 17.2 nM)
[19] = Negative allosteric modulator activity at human P-gp C1227A mutant expressed in HEK293FT cells assessed as reversal of P-gp mediated PTX resistance by measuring paclitaxel IC50 incubated for 5 days by MTS assay (Rvb = 352.1 +/- 30.6 nM)
[20] = Negative allosteric modulator activity at human P-gp Q1193F mutant expressed in HEK293FT cells assessed as reversal of P-gp mediated PTX resistance by measuring paclitaxel IC50 incubated for 5 days by MTS assay (Rvb = 453.6 +/- 14.8 nM)
[21] = Negative allosteric modulator activity at human P-gp Q1193E mutant expressed in HEK293FT cells assessed as reversal of P-gp mediated PTX resistance by measuring paclitaxel IC50 incubated for 5 days by MTS assay (Rvb = 395.8 +/- 13.4 nM)
[22] = Negative allosteric modulator activity at human P-gp Q1193K mutant expressed in HEK293FT cells assessed as reversal of P-gp mediated PTX resistance by measuring paclitaxel IC50 incubated for 5 days by MTS assay (Rvb = 466.2 +/- 72.3 nM)
[23] = Negative allosteric modulator activity at human P-gp Q1193C mutant expressed in HEK293FT cells assessed as reversal of P-gp mediated PTX resistance by measuring paclitaxel IC50 incubated for 5 days by MTS assay (Rvb = 359.4 +/- 22.3 nM)
[24] = Negative allosteric modulator activity at human P-gp Q1193T mutant expressed in HEK293FT cells assessed as reversal of P-gp mediated PTX resistance by measuring paclitaxel IC50 incubated for 5 days by MTS assay (Rvb = 523.6 +/- 33.7 nM)
[25] = Negative allosteric modulator activity at human P-gp Q1193N mutant expressed in HEK293FT cells assessed as reversal of P-gp mediated PTX resistance by measuring paclitaxel IC50 incubated for 5 days by MTS assay (Rvb = 560.2 +/- 43.9 nM)
[26] = Negative allosteric modulator activity at human P-gp I1115F mutant expressed in HEK293FT cells assessed as reversal of P-gp mediated PTX resistance by measuring paclitaxel IC50 incubated for 5 days by MTS assay (Rvb = 663.1 +/- 10.2 nM)
[27] = Negative allosteric modulator activity at human P-gp T1226W mutant expressed in HEK293FT cells assessed as reversal of P-gp mediated PTX resistance by measuring paclitaxel IC50 incubated for 5 days by MTS assay (Rvb = 363.5 +/- 24.9 nM)
[28] = Negative allosteric modulator activity at human P-gp T1226Y mutant expressed in HEK293FT cells assessed as reversal of P-gp mediated PTX resistance by measuring paclitaxel IC50 incubated for 5 days by MTS assay (Rvb = 449.3 +/- 31.2 nM)
[29] = Negative allosteric modulator activity at human P-gp T1226F mutant expressed in HEK293FT cells assessed as reversal of P-gp mediated PTX resistance by measuring paclitaxel IC50 incubated for 5 days by MTS assay (Rvb = 409.9 +/- 19.7 nM)
[30] = Negative allosteric modulator activity at P-gp in human LCC6MDR cells overexpressing P-gp assessed as reversal of P-gp mediated paclitaxel resistance activity incubated for 5 days by MTS assay

Compound: O=c1cc(-c2ccc(OCCOCCNCc3ccccc3)cc2)oc2ccccc12
IC50 [1]: 3.8 nM
IC50 [2]: 7.4 nM
IC50 [3]: 7.8 nM
IC50 [4]: 4.3 nM
IC50 [5]: 6.3 nM
IC50 [6]: 4.7 nM
IC50 [7]: 4.6 nM
IC50 [8]: 3.5 nM
IC50 [9]: 4.8 nM
IC50 [10]: 8.3 nM
IC50 [11]: 8.2 nM
IC50 [12]: 7.6 nM
IC50 [13]: 7.9 nM
IC50 [14]: 4.2 nM
IC50 [15]: 8.6 nM
IC50 [16]: 9.9 nM
IC50 [17]: 10 nM
IC50 [18]: 112 nM
IC50 [19]: 5.2 nM
IC50 [20]: 81 nM
IC50 [21]: 93 nM
IC50 [22]: 48 nM
IC50 [23]: 29 nM
IC50 [24]: 61 nM
IC50 [25]: 11 nM
IC50 [26]: 43 nM
IC50 [27]: 6.4 nM
IC50 [28]: 7.2 nM
IC50 [29]: 6.9 nM

Compound: [N-]=[N+]=NCc1cc(CNCCOCCOc2ccc(-c3cc(=O)c4ccccc4o3)cc2)cc(N=[N+]=[N-])c1
EC50 [30]: 110 nM
IC50 [1]: 2.1 nM

Compound: O=c1cc(-c2ccc(OCCOCCNCc3ccc(C4(C(F)(F)F)N=N4)cc3)cc2)oc2ccccc12
EC50 [30]: 107 nM
IC50 [1]: 2.3 nM

Compound: O=c1cc(-c2ccc(OCCOCCN(Cc3ccc(C4(C(F)(F)F)N=N4)cc3)Cc3ccc(C4(C(F)(F)F)N=N4)cc3)cc2)oc2ccccc12
EC50 [30]: 3010 nM
IC50 [1]: 158 nM

Compound: C#CCN(CCOCCOc1ccc(-c2cc(=O)c3ccccc3o2)cc1)Cc1ccc(C2(C(F)(F)F)N=N2)cc1
EC50 [30]: 602 nM
IC50 [1]: 57 nM

Compound: O=c1cc(-c2ccc(OCCOCCOCCOCCOc3ccc(-c4cc(=O)c5ccccc5o4)cc3)cc2)oc2ccccc12
EC50 [30]: 360 nM

Compound: O=c1cc(-c2ccc(O)cc2)oc2cc(O)cc(O)c12 [Naringenin, 18]
EC50 [30]: > 10000 nM

Results, then the compound that gave them:

EC50 [30]: 733 nM
IC50 [1]: 280 nM
Compound: C#CCNc1cc(C)cc2c(=O)cc(-c3ccc(OCCOCCNCc4ccc(C5(C(F)(F)F)N=N5)cc4)cc3)oc12

IC50 [1]: 312 nM
Compound: C#CCNc1cc(C)cc2c(=O)cc(-c3ccc(OCCOCCN(Cc4ccc(C5(C(F)(F)F)N=N5)cc4)Cc4ccc(C5(C(F)(F)F)N=N5)cc4)cc3)oc12

EC50 [30]: 66 nM
IC50 [1]: 1.4 nM
Compound: C#CCOc1cccc2oc(-c3ccc(OCCOCCNCc4ccc(C5(C(F)(F)F)N=N5)cc4)cc3)cc(=O)c12

EC50 [30]: 900 nM
Compound: O=c1cc(-c2ccc(OCCOCCOCCOCCOc3ccc(-c4cc(=O)c5c(O)cc(O)cc5o4)cc3)cc2)oc2cc(O)cc(O)c12
